The values below come from PubChem BioAssay AID179 (DTP/NCI, 2004).

The source made the active and inactive calls.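 How the source made its calls: active means compounds giving half or more protection of infected cells from virus-caused growth loss, again on retest; inactive means the rest.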 Where a SMILES comes first, the peptide text is derived from it.

The experiment relates to CEM cells HIV-1 protection, formazan growth assay. The experiment is described as follows: NCI AIDS Antiviral Assay. As to conditions: for IC50: measured here: growth of uninfected CEM cells. In a few lines: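 Category rules: moderately active means at least 50% protection on retest, and confirmed active means 100% protection reproducibly. The underlying data came from a formazan growth assay in HIV-1-infected CEM cells.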

The EC50 is the concentration that produces a half-maximal response. In general, IC50 refers to the concentration that gives 50% inhibition. A higher IC50 goes with weaker potency.

For the compound `Cc1c2c(n3c(nc4ccccc43)c1C#N)NCC2`, the EC50 is more than 200 µM and the concentration for half-maximal inhibition (IC50) is more than 200 µM.

Take `CCCCCCCCCCCCSS(=O)(=O)c1ccccc1`: the EC50 was more than 75.9 µM and the IC50 is more than 75.9 µM.

On to `COc1ccc(Cc2nn(C3OC(COC(C)=O)C(OC(C)=O)C(OC(C)=O)C3OC(C)=O)c(=S)n(-c3ccc(OC)cc3)c2=O)cc1` (stereo unspecified), for which the result was inactive.

In the case of `Cc1ccc(/C(O)=C/c2nc3ccc([N+](=O)[O-])cc3nc2/C=C(\O)c2ccc(C)cc2)cc1`, the EC50 was more than 100 µM and the IC50 is 97.7 µM.

As to `COc1ccc(-c2c(C#N)c(=O)nc(SC)n2C2OCC(OC(C)=O)C(OC(C)=O)C2OC(C)=O)cc1` (stereo unspecified), the EC50 is more than 200 µM and the IC50 turned out to be 35.5 µM.

Consider `C[N+](C)(C)CC1CCC(C[N+](C)(C)C)C1=NO` (stereo unspecified), for which the EC50 was more than 501 µM and the half-inhibitory concentration (IC50) was more than 501 µM.

Turning to `CON(C)c1nc(N(C)OC)nc(N(C)OC)n1`, the EC50 was more than 200 µM and the half-maximal inhibitory concentration (IC50) is more than 200 µM.

As for `CC(C)=CCc1cc2c(cc1O)OC[C@H]1c3cc4c(cc3O[C@@H]21)OCO4`, the EC50 is more than 53.7 µM and the concentration for half-maximal inhibition (IC50) was 2.09 µM.

In the case of `CC(=O)N1C(NN(C)C)CCN1c1ccccc1` (stereo unspecified), the EC50 was more than 200 µM and the IC50 is 32.4 µM.

Consider `Nc1c2ccccc2nc2c1ccc1ncccc12`, for which the EC50 is more than 200 µM and the IC50 amounted to 6.46 µM.

Turning to `[Au+].c1c[n-]cn1.c1ccc([PH+](c2ccccc2)c2ccccc2)cc1`, the EC50 was more than 13.8 µM and the IC50 was determined as 6.31 µM.

Take `Oc1cccc2c(Cl)ccnc12`: the EC50 is more than 20 µM and the 50% inhibitory concentration (IC50) stood at 1.58 µM.

For the compound `COc1ccc(-n2nc(C)ccc2=O)cc1`, the EC50 is more than 1150 µM and the half-inhibitory concentration (IC50) is 776 µM.

On to `O=C(Nc1ccc(Cl)c(Cl)c1)Nc1ccc([N+](=O)[O-])cn1`, for which the EC50 was more than 200 µM and the half-maximal inhibitory concentration (IC50) is more than 200 µM.

For the compound `O=C1OCC(O)C(C2OC(=O)c3cc(O)c(O)c(O)c3-c3c(O)c(O)c(O)c4c3C(=O)OC2C4c2c(O)cc(O)c3c2OC(c2ccc(O)c(O)c2)C(O)C3)OC(=O)c2cc(O)c(O)c(O)c2-c2c1cc(O)c(O)c2O` (stereo unspecified), the EC50 was more than 22.4 µM and the IC50 is more than 22.4 µM.

Take `CC(C)CC(NC(=O)C(Cc1ccc(O)cc1)NC(=O)C(CO)NC(=O)C(C)NC(=O)C(CO)NC(=O)C(CCC(=O)O)NC(=O)C(NC(=O)C(N)CCC(=O)O)C(C)C)C(=O)NC(CCCN=C(N)N)C(=O)NC(CCCCN)C(=O)O` (stereo unspecified) (H-EVESASYLRK-OH; configuration not given here): the result was inactive.

Regarding `N#CCCN(C1=NN(C(=O)CC(=O)Nc2ccccc2Cl)C(c2ccccc2)C1)c1ccccc1Cl` (stereo unspecified), the EC50 was more than 36.3 µM and the IC50 is more than 36.3 µM.

As to `Nc1nc(Cl)cc(Nc2cc(Cl)cc(Cl)c2)n1`, the EC50 is more than 200 µM and the IC50 was determined as 23.4 µM.

On to `CC1=[N+]([O-])C2(CCCC2)N(O)C1(C)C`, for which the EC50 is more than 200 µM and the IC50 was more than 200 µM.

Regarding `C=C(C)C(=Nc1ccc(Cl)c(Cl)c1)N(C)C`, the outcome was inactive.

As for `Cc1ccc(N=Nc2ccc(O)c(=O)cc2)cc1`, the EC50 is more than 11.2 µM and the concentration for half-maximal inhibition (IC50) was 6.92 µM.

For the compound `Nc1nc(Cl)nc(NCc2ccccc2)n1`, the EC50 was more than 200 µM and the IC50 is more than 200 µM.

Regarding `Cc1c(CCCl)c(N=[N+]=[N-])n2c(nc3ccccc32)c1C#N`, the EC50 is more than 200 µM and the IC50 was 11 µM.

Consider `Oc1c(Cl)ccc2cccnc12`, for which the EC50 was more than 20 µM and the half-maximal inhibitory concentration (IC50) was found to be 0.676 µM.

With `CCCCCCCCCCCCCCCCCCNC(=S)/N=C\C1=C(O)c2ccccc2C1=O`, the EC50 is more than 200 µM and the IC50 amounted to 36.3 µM.

Turning to `O=c1[nH]nnc2cc(Cl)ccc12`, the EC50 was more than 200 µM and the IC50 was more than 200 µM.

As to `OC1NC2CC3NC(O)C(O)NC3CC2NC1O` (stereo unspecified), the EC50 was more than 100 µM and the IC50 is more than 100 µM.

Turning to `CC(C)OC(=O)c1ccc(NCC2=CC(=O)C=CC2=O)cc1Cl`, the EC50 is more than 200 µM and the half-inhibitory concentration (IC50) is 9.33 µM.

For the compound `C[N+](C)(C)C(CSSCC(C(=O)[O-])[N+](C)(C)C)C(=O)[O-]` (stereo unspecified), the EC50 is more than 200 µM and the IC50 is more than 200 µM.

Take `CC(=O)c1ccc(OCC(O)CO)cc1` (stereo unspecified): the EC50 was more than 617 µM and the IC50 was more than 617 µM.

For `O=C(O)C1CCC(c2ccc(F)cc2)=N1` (stereo unspecified), the EC50 is more than 200 µM and the IC50 is more than 200 µM.

Regarding `COc1ccc(-c2cc(Cc3cccs3)c(=O)[nH]n2)cc1`, the outcome was inactive.

In the case of `Cc1nc2ccccc2c(=O)n1NC(=O)Cc1ccccc1`, the EC50 is more than 200 µM and the half-maximal inhibitory concentration (IC50) was more than 200 µM.

As for `CC1(C)C=C(/C=N/Nc2ccccc2)C(C#N)=C(O)C1(C#N)C#N`, the EC50 is more than 200 µM and the 50% inhibitory concentration (IC50) amounted to 23.4 µM.

`COc1ccc(-c2cc(-c3ccccc3)[nH]c(=O)c2N(C)C)cc1`: the EC50 was more than 58.9 µM and the concentration for half-maximal inhibition (IC50) is more than 58.9 µM.

On to `CC(=O)[n+]1nc(-c2nc(N)nc(NC3C4CC5CC(C4)CC3C5)n2)oc1-c1ccc(Cl)cc1` (stereo unspecified), for which the EC50 was more than 11.2 µM and the half-maximal inhibitory concentration (IC50) was more than 11.2 µM.

Take `CCC1(CCCC=C(c2cc(Cl)c(OC)c(CO)c2)c2cc(Cl)c(OC)c(CO)c2)OCCO1`: the EC50 is more than 200 µM and the IC50 is 11.7 µM.

On to `O=C1c2sc(-c3ccc(F)cc3)cc2-n2cccc21`, for which the EC50 is more than 200 µM and the IC50 came out at 120 µM.

For the compound `Cc1cn(C2C=CC(O)CC2)c(=O)[nH]c1=O` (stereo unspecified), the EC50 was more than 589 µM and the IC50 was more than 589 µM.

`C/C(=N\NC(=S)N(C)C)c1cccnn1`: the EC50 is more than 200 µM and the half-maximal inhibitory concentration (IC50) worked out at 0.355 µM.

As to `CC1=NN(C(=O)c2ccc(Cl)cc2)C(=O)/C1=C/c1ccc(Cl)cc1`, the EC50 was more than 10.5 µM and the IC50 is more than 10.5 µM.

Turning to `COc1ccc2c(c1)CCN1CCc3cc(OC)c(OC)cc3CC21` (stereo unspecified), the EC50 was more than 200 µM and the IC50 was 61.7 µM.

For the compound `CSc1c(C#N)c(N)n(-c2ccc(C)cc2)c(=O)c1C#N`, the EC50 was more than 83.2 µM and the concentration for half-maximal inhibition (IC50) was 74.1 µM.

As to `CC(O)C1OC(n2cnc3c(=O)[nH]cnc32)C(O)C1O` (stereo unspecified), the EC50 is more than 891 µM and the IC50 was more than 891 µM.

For `COc1ccc(N=C2C(=Nc3ccc(OC)cc3)N(c3ccccc3[N+](=O)[O-])C(=S)N2c2ccc(OC)cc2)cc1`, the EC50 is more than 200 µM and the IC50 was found to be 47.9 µM.

Consider `N#CCCN(C(=O)Nc1ccccc1)[C@H]1CCCC[C@@H]1N(C(=O)Nc1ccccc1)c1ccccc1`, for which the EC50 was more than 200 µM and the IC50 came to 33.1 µM.

For `CC(C)C(=O)NC(=S)Nc1ccc([N+](=O)[O-])cc1C#N`, the EC50 is more than 123 µM and the IC50 was more than 123 µM.

On to `CS(=O)(=O)CS(C)(=O)=O`, for which the EC50 was more than 200 µM and the IC50 was more than 200 µM.

For the compound `Nc1nc(N)c(C2=CCNCC2)c(=O)[nH]1`, the EC50 was more than 200 µM and the concentration for half-maximal inhibition (IC50) was more than 200 µM.

As for `CC(C)[C@@H]1CC[C@@H](C)C[C@H]1OC(=O)/C=C1\C(C(=O)O[C@@H]2C[C@H](C)CC[C@H]2C(C)C)[C@H]2C=C[C@@H]1O2` (stereo partly specified), the EC50 was more than 200 µM and the IC50 was more than 200 µM.

With `CCOC(=O)Nc1nn(C)c(=NCc2ccccc2)s1`, the EC50 is more than 200 µM and the IC50 was more than 200 µM.

For the compound `N[C@H](C(=O)O)[C@@H](Cl)CC(=O)O`, the outcome was inactive.

For `CN(C)CCN1C(=O)c2ccccc2N(C)c2ccccc21`, the EC50 is more than 200 µM and the IC50 is more than 200 µM.

In the case of `COc1cccc2c1C(=O)c1c(O)c3c(c(O)c1C2=O)C[C@@](O)(C(C)=O)C[C@@H]3OC1CC(N(Cc2ccccc2)Cc2ccccc2)C(O)C(C)O1` (stereo partly specified), the result was inactive.

On to `Cc1cn(C2CC(O[Si](C)(C)C(C)(C)C)C(/C=[N+](\C)[O-])O2)c(=O)[nH]c1=O` (stereo unspecified), for which the EC50 is more than 200 µM and the IC50 was 37.2 µM.

Consider `NC(N)=NCCN1CCCCCCC1`, for which the EC50 is more than 200 µM and the half-inhibitory concentration (IC50) was more than 200 µM.

Regarding `CC(C)(C)c1ccc(-c2nc3ccc(Cl)cc3c(=O)o2)cc1`, the EC50 was more than 200 µM and the IC50 came out at 9.33 µM.

As to `CCN1C(Cl)=NS(=O)(=O)c2ccccc21`, the EC50 is more than 200 µM and the IC50 was 91.2 µM.

For the compound `CC1(C)OCC2OC(n3cnc4c(N)nc(Cl)nc43)C(OS(C)(=O)=O)C2O1` (stereo unspecified), the EC50 is more than 11.2 µM and the IC50 is 7.59 µM.

In the case of `COc1c(C)c(C/C=C(\C)CCCCO)c(OC)c(OC)c1OC`, the EC50 was more than 200 µM and the half-maximal inhibitory concentration (IC50) was found to be 26.3 µM.

Regarding `CCOC(=S)SC1OC(COC(C)=O)C(OC(C)=O)C(OC(C)=O)C1OC(C)=O` (stereo unspecified), the EC50 is more than 200 µM and the half-inhibitory concentration (IC50) was found to be 35.5 µM.

With `O=C(O)c1cc2cccc(S(=O)(=O)O)c2cc1O`, the EC50 is more than 200 µM and the IC50 is more than 200 µM.

Turning to `COC(=O)[C@](C)(Cc1ccccc1)NC(=O)[C@@H](C)N1[C@@H](c2ccccc2)COC1(C)C`, the EC50 was more than 200 µM and the IC50 is more than 200 µM.

On to `O=[As](O)(O)c1ccc(Cl)cc1Cl`, for which the 50% effective concentration (EC50) is more than 200 µM and the IC50 came to 95.5 µM.

As for `O=C(N/N=C/c1ccccc1S(=O)(=O)O)C(=O)N/N=C/c1ccccc1S(=O)(=O)O`, the EC50 was more than 200 µM and the IC50 is more than 200 µM.

As for `O=c1[nH]c2ccc(C(F)(F)F)cc2nc1-c1ccccc1`, the EC50 was more than 200 µM and the half-maximal inhibitory concentration (IC50) was more than 200 µM.

Regarding `COc1ccc(N2C(=O)C3CSCN3C2=O)cc1` (stereo unspecified), the EC50 was more than 200 µM and the IC50 is more than 200 µM.

For `CC(=O)NNc1nc(C)c(C(=O)NNC(=O)C(=O)Nc2ccc(Cl)c([N+](=O)[O-])c2)s1`, the EC50 is more than 288 µM and the half-inhibitory concentration (IC50) is 107 µM.

As for `O=C1NC(N2CCOCC2)=N/C1=C\c1ccc(O)cc1`, the EC50 is more than 200 µM and the 50% inhibitory concentration (IC50) came to 105 µM.

In the case of `Cc1oncc1NC1=CC(=O)C(=O)c2ccccc21`, the EC50 was more than 200 µM and the half-maximal inhibitory concentration (IC50) worked out at 8.51 µM.

Regarding `CC(=O)Nc1ccc(C(=O)OCC2OC(n3cc(C)c(=O)[nH]c3=O)CC2N=[N+]=[N-])cc1` (stereo unspecified), the EC50 was 0.148 µM and the IC50 turned out to be 38.9 µM.
